Legend:
[1] = system: Mmp9; assay: Mmp9 expression by qPCR in mouse peritoneal macrophages cultured on fibronectin; type: cell-based; conditions: wild type and Arhgef1-deficient macrophages on fibronectin; 40 nM S1P, 10 μM LPA, 6 μM PTXA2; 24 h
Protocol: (§1) FIG. 4. TP signaling is required for MMP9 production in vitro and in vivo. A) Macrophage Mmp9 expression after culture on fibronectin for 24 hrs in media/vehicle (−), 40 nM S1P, 10 μM LPA, 10 nM U-46619 (TP agonist) or 6 μM PTXA2 (TP antagonist). Data represent normalized mean±SE. B) Arhgef1−/− mice (n=16) were exposed to aerosolized PBS (n=16), 220 μM PTXA2 (n=6) or 190 μM U-46619 (n=10) for 20 minutes and BAL harvested 1 day later and MMP activity measured.
FIG. 12. Thromboxane receptor signaling is necessary for fibronectin-induced MMP9 production by macrophages and is attenuated by Arhgef1. A, representative gelatin zymograms of conditioned media from macrophages cultured on plastic (ctl) or FN and treated with 1.56 or 6.25 μM of the thromboxane receptor antagonist PTA2. Wild type (+/+) and Arhgef1^−/− (−/−) samples from separate zymograms are shown. B, quantitation of MMP9 activity as determined by densitometric analysis of zymograms in A. The results are representative of two independent experiments. C, representative zymograms from conditioned media from macrophages cultured on plastic or fibronectin and treated with 28 μM of the thromboxane receptor antagonist L-655,240. D, quantitation of MMP9 activity as determined by densitometric analysis of zymograms in C. The results are compiled from two independent experiments with n=4 for both wild type (open bars) and Arhgef1^−/− (black bars) samples. The data represent the means±S.E. *, p<0.05 Student's two-tailed t test compared with conditioned media from cells cultured on plastic. #, p<0.05 Student's two-tailed t test comparing conditioned media from wild type cells to Arhgef1^−/− cells cultured under identical conditions. $, p<0.05 Student's two-tailed t test compared with conditioned media from cells cultured on fibronectin. E, MMP2 activity was quantitated in conditioned media as previously described for MMP9. The results are compiled from four independent experiments with n=10 for wild type (open bars) and Arhgef1^−/− (black bars) samples cultured on either plastic or fibronectin. For cells treated with 20 mM aspirin, n=6 for wild type (open bars) and Arhgef1^−/− (black bars) samples. For cells treated with 28 μM L-655,240, n=4 for wild type (open bars) and Arhgef1^−/− (black bars) samples. The data represent the means±S.E. F, MMP9 activity was quantitated as previously described and normalized to a percentage of fibronectin response for each genotype. The cells were either untreated or treated with 0.5% Me2SO or 28 μM L-655,240. The results are compiled from two independent experiments with n=3 for all conditions and genotypes. The data represent the means±S.E. *, p<0.05 Student's two-tailed t test compared with conditioned media from cells cultured on fibronectin. G, relative Mmp9 expression was measured by qPCR in macrophages cultured on fibronectin in the presence of the thromboxane receptor agonist (U-46619, 10 nM), S1P (40 nM), or LPA (10 μM). […] Wild type (open bars, n=12, 6, 3, and 3 for fibronectin, +U-46619, +S1P, and +LPA, respectively) and Arhgef1^−/− (black bars, n=14, 6, 3, and 2, respectively) from at least two independent experiments. The data represent the means±S.E. *, p<0.05 Student's two-tailed t test compared with conditioned media from cells cultured on fibronectin, #, p<0.05 Student's two-tailed t test comparing conditioned media from wild type cells to Arhgef1^−/− cells cultured under identical conditions. […]

[2] = system: Mmp9; assay: MMP9 activity in BAL of Arhgef1−/− mice after aerosol exposure; type: in vivo, mouse; conditions: inhalation of aerosol 20 min (220 μM PTXA2, 190 μM U-46619), BAL 24 hours later
Protocol: as §1

SMILES: CCCCC[C@@H](O)/C=C/[C@H]1C[C@H]2C[C@@H]([C@@H]1C/C=C\CCCC(=O)O)C2(C)C (relative stereo) [PTXA2, (18-(1alpha,2beta(Z),3alpha(1E,3S*),5alpha))-7-(3-(3-Hydroxy-1-octenyl)-6,6-dimethylbicyclo(3.1.1)hept-2-yl)-5-heptenoic acid]
- Mmp9 expression [1]: ablated Mmp9 expression
- MMP9 activity in BAL [2]: considerably diminished MMP9 activity
